{"source": "patent US20230233687A1", "about": "“HYALURONIC ACID-BASED FORMULATIONS FOR TREATMENT AND PREVENTION OF OCULAR HYPERTENSION AND GLAUCOMA” (I.COM MEDICAL GMBH, priority 2020, published 2023)", "key": {"[1]": {"assay": "Pre-test: latanoprost dissolved in the HA vehicle (HPLC)", "type": "physicochemical", "settings": "vehicle 0.15% w/v hylan A in phosphate buffered saline pH 7.4, 25 or 50 μg/ml added, stirred 18 hours at 40° C.", "experimental": "Sterile bulk solution for the production of COMFORT SHIELD® MDS eye drops (i.com medical GmbH, Munich, Germany) was used as vehicle for the preparation of prototype latanoprost bulk solution (PLBS). The vehicle contained 0.15% w/v hylan A (HA with 2.9 m^3/kg intrinsic viscosity) dissolved in phosphate buffered saline solution (8.035 g/l NaCl; 1.2 mmol/l Na2HPO4/NaH2PO4; pH 7.4). Latanoprost was obtained from Yonsung Fine Chemicals Co. Ltd., Gyeonggi-do, Republic of Korea. PLBS was prepared by medi-pharm Laboratorium GmbH, Falkensee, Germany by dissolving 20±1 μg/ml latanoprost in the vehicle.\nIn a pre-test 25 μg/ml and 50 μg/ml latanoprost were added to the vehicle and the solution stirred for 18 hours at 40° C. The latanoprost content was determined by HPLC using a Hypersil B D S C18 […], 150.0×4.0 mm column (VDS optilab) and a UV detector (200 nm)."}, "[2]": {"settings": "PubChem CID 5311221; cited from earlier work"}}}
{"smiles": "CC(C)OC(=O)CCC/C=C\\C[C@@H]1[C@@H](CC[C@@H](O)CCc2ccccc2)[C@H](O)C[C@@H]1O", "note": "[latanoprost]", "values": [{"measurement": "latanoprost dissolved in the vehicle", "setting": "[1]", "result": 20.8, "unit": "µg/mL"}, {"measurement": "solubility of latanoprost in water", "setting": "[2]", "result": 12.9, "unit": "µg/mL"}]}
